Measured values published in paper PMC5431342, “Discovery of an enzyme and substrate selective inhibitor of ADAM10 using an exosite-binding glycosylated substrate” (Scientific Reports, 2016).

Tests used:
ADAM10 [1] = target: T1, ADAM10 (Homo sapiens, UniProt O14672); experiment: ADAM10 glycosylated substrate uHTS/HTS assay; assay type: biochemical
T1 construct: purchased R&D Systems 936-AD
T1 sequence (O14672 214-748): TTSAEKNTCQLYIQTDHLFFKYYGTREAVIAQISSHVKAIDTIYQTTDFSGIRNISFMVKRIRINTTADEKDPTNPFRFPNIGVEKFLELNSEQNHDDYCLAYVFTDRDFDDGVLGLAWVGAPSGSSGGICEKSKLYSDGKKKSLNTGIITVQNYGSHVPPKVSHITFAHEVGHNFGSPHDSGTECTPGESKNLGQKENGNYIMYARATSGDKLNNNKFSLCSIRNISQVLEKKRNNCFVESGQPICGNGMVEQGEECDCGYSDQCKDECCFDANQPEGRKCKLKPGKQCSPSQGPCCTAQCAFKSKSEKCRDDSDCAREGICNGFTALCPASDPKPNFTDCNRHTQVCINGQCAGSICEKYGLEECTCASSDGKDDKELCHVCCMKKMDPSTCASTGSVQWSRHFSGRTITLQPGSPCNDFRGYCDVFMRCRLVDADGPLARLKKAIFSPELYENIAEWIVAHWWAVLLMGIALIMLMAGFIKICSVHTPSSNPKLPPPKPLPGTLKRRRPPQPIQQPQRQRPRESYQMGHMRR
Experimental: To enable uHTS both ADAM10 and ADAM17 glycosylated substrate[13] (Fig. 1A) assays were miniaturized to 1536 well plate format. The workflow of the assays in 384 well plate format was recaptured in 1536 well plate format and assay volume was scaled down to 5 µL.
Both assays followed the same general protocol. […] Reactions were incubated at RT for 2 h, after which the fluorescence was measured using Perkin Elmer Viewlux multimode microplate imager (λexcitation = 360 nm, λemission = 460 nm). Final concentration of test compounds in assays was 7.0 µM.
The miniaturized 1536-well plate format ADAM10 and ADAM17 assays were used to screen a collection of ≈370,000 compounds (MLSMR library, provided by the NIH) on the automated Kalypsys/GNF platform at the Scripps Research Institute Molecular Screening Center (SRIMSC, Jupiter, FL. More details at http://hts.florida.scripps.edu/). […] Both uHTS campaigns were run separately but in a similar manner. Briefly, the first step was the primary screen of all MLSMR’s test compounds as singlicate against the ADAM10 or ADAM17 target at a final concentration of 7.0 μM. Next, compounds selected as primary hits were cherry-picked and retested in triplicate against the primary screen target and its anti-target (ADAM17 for the ADAM10 screening effort, and vice-versa) at the same final concentration of 7.0 μM. […] All data generated during this effort were uploaded to the SRIMSC’s institutional screening database (Assay Explorer, Symyx). Sample to background (S/B) ratios, as well as Z and Z′ values were calculated on a per-plate basis as described before. Curve fitting and resulting IC50 determinations were performed as previously reported.

ADAM10 [2] = target: T1, ADAM10; experiment: HPLC-based ADAM10 assay using glycosylated substrate; assay type: biochemical
Experimental: Both assays followed the same general protocol. 30 µL of 3x enzyme solution (30 nM) in assay buffer (10 mM Hepes, 0.001% Brij-35, pH 7.5) were added to solid bottom black 384 plates. Next, 30 µL of 3x test compounds and pharmacological controls were added to corresponding wells. After 30 min incubation at RT, the reactions were started by addition of 30 µL of 3x solution of glycosylated substrate (30 µM). Reactions were incubated at RT for 2 h and then quenched with 10 µL of 500 µM EDTA. Analytical RP-HPLC was performed on a 1260 Infinity Agilent Technologies liquid chromatograph equipped with an Agilent Poroshell 120 column. Eluents were 0.1% TFA in water (A) and 0.1% TFA in acetonitrile (B). The elution gradient was 0–98% B in 15 min with a flow rate of 1.0 mL/min. Detection was at λ = 214, 360, and 460 nm.

HEK293 cells = experiment: Cell toxicity study (CellTiter-Glo), HEK293; assay type: cell-based
Experimental: Test compounds were solubilized in 100% DMSO and added to polypropylene 384 well plates (Greiner cat# 781280). 1,250 of BT474 or HEK293 cells were plated in 384-well plates in 8 µL of serum-free media (HybriCare for BT474, EMEM for HEK293). Test compounds and pharmacological assay control (lapatinib) were prepared as 10-point, 1:3 serial dilutions starting at 10 mM, then added to the cells using the pin tool mounted on Biomek NX^P. Plates were incubated for 72 h at 37 °C, 5% CO2 and 95% RH. After incubation, 8 µL of CellTiter-Glo® (Promega cat# G7570) was added to each well, and incubated for 15 min at room temperature. Luminescence was recorded using a Biotek Synergy H4 multimode microplate reader. Viability was expressed as a percentage relative to wells containing media only (0%) and wells containing cells treated with DMSO only (100%). Three parameters were calculated on a per-plate basis: (a) the signal-to-background ratio (S/B); (b) the coefficient for variation [CV; CV = (standard deviation/mean) × 100)] for all compound test wells; and (c) the Z′-factor. IC50 values were calculated by fitting normalized data to sigmoidal log vs. response equation utilizing non-linear regression analysis from GraphPad Prizm 6.

[3] = tested on: shedding of HER2 from the surface of BT474 cells; experiment: HER2 shedding inhibition (AlphaLISA soluble HER2); assay type: cell-based; details: Homo sapiens, BT-474, 48 h
Experimental: To determine the effect of CID 3117694 on the release of HER2, an AlphaLISA soluble HER2 assay kit was utilized (Perkin Elmer # AL234 C/F). Briefly, 20,000 BT474 (HER2 positive) breast cancer cells were seeded in 200 µL of complete Hybricare media in 96 well plates. After 4 h, media was aspirated and CID 3117694 (3.125–100 µM) and controls (50 µM marimastat and GI 254023X)[11] were added in serum-free media. Cells were incubated for 48 h at 37 °C with 5% CO2 and under a humidified atmosphere. After incubation, 5 µL of supernatant was transferred into white opaque 384 well plate for HER2 AlphaLISA assay.

difference in potency, 0.5 hour pre-incubation versus no incubation (ADAM10 [1]): approximately 40 fold
IC50 (ADAM10 [1]; 1 h pre-incubation): 0.7 ± 0.5 µM
IC50 (ADAM10 [1]; 4 h pre-incubation): 0.4 ± 0.3 µM
difference in in vitro potency for ADAM10, GI 254023X versus CID 3117694 (ADAM10 [1]; IC50 5.3 nM versus 1.1 µM): ~200 fold
IC50 (ADAM10 [1]; no pre-incubation with ADAM10): 40 ± 5 µM
inhibition profile (ADAM10 [1]; no pre-incubation with ADAM10): partial inhibition profile
IC50 (ADAM10 [1]; original uHTS dose response, 10-point 1:3 dilutions starting at 70 µM): 6.5 µM
IC50 (ADAM10 [1]; reordered powder, HTS assay, glycosylated substrate, 0.5 h pre-incubation): 1.1 µM
IC50 (ADAM10 [2]): 4.1 µM
IC50 [3]: 30 ± 2.5 µM
Structure (SMILES): COc1cccc(C(=O)NNC(=O)C(=O)Nc2ccc(C)c(Cl)c2)c1 [CID 3117694]
effect on HEK293 cell viability (HEK293 cells; 100 µM): moderate effect
effect on viability of HEK293 cells (HEK293 cells; 72 h): did not affect viability
